These results are taken from patent publication US20230117324A1, “OXAZINE MONOACYLGLYCEROL LIPASE (MAGL) INHIBITORS” (Hoffmann-La Roche Inc., priority 2018, published 2023).

The target of the assay is T1, MAGL (Homo sapiens, UniProt Q99685).
T1 sequence (Q99685 1-303): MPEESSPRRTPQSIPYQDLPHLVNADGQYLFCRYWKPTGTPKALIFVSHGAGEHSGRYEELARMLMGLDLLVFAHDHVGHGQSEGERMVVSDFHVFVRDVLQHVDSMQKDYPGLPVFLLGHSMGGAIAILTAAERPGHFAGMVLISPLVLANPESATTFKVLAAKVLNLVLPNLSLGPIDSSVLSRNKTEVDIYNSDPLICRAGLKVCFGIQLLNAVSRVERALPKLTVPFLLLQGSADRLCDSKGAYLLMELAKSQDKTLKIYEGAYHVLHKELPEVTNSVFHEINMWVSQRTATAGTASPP
In words: MAGL inhibition, 2-AG assay (hydrolysis of 2-arachidonoylglycerol, arachidonic acid by mass spectrometry). It is filed as biochemical. The note with it: 2-AG assay (footnote [b]). In outline:
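Hydrolysis of 8 μM 2-arachidonoylglycerol by […] was run for 30 min at RT after a 15 min compound preincubation, in Tris/EDTA/Tween buffer. Test compounds spanned […]. The product was measured by online SPE-MS/MS (transitions 303.1→259.1 and 311.1→267.0), and activity was derived from the arachidonic acid/d8-arachidonic acid signal ratio.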
The term IC50 denotes the point on the concentration scale where inhibition reaches its midpoint. Read a high IC50 as weaker potency. For the compound `O=C1CO[C@H]2CCN(C(=O)N3CC(C(OCC(F)(F)F)c4ccc(F)cc4)C3)C[C@H]2N1` (single isomer, unassigned) [Example 106, (4aR,8aS)-6-[3-(R or S)-[(4-Fluorophenyl)-(2,2,2-trifluoroethoxy)methyl]azetidine-1-carbonyl]-4,4a,5,7,8,8a-hexahydropyrido[4,3-b][1,4]oxazin-3-one], the midpoint of inhibition, the IC50, lay at 318 nM.

With `O=C1CO[C@H]2CCN(C(=O)N3CC(c4ccc(N5CCCC5C(F)(F)F)cc4)C3)C[C@H]2N1` (single isomer, unassigned) [Example 195], the IC50 amounted to 0.4 nM. `N#Cc1cc(C2CN(C(=O)N3CC[C@@H]4OCC(=O)N[C@@H]4C3)C2)ccc1OC(F)(F)F` [Example 213, 5-(1-((4aR,8aS)-3-Oxooctahydro-2H-pyrido[4,3-b][1,4]oxazine-6-carbonyl)azetidin-3-yl)-2-(trifluoromethoxy)benzonitrile] had an IC50 of 114 nM. As for `O=C1CO[C@H]2CCN(C(=O)N3CC(c4ccc(C(F)(F)F)cc4)C3)C[C@H]2N1` [Example 146, (4aR,8aS)-6-(3-(4-(Trifluoromethyl)phenyl)azetidine-1-carbonyl)hexahydro-2H-pyrido[4,3-b][1,4]oxazin-3(4H)-one], the figure is 34 nM. The same measure for `Cc1ccc(C2CN(C(=O)N3CC[C@@H]4OCC(=O)N[C@@H]4C3)C2)cc1C` [Example 259, (4aR,8aS)-6-[3-(3,4-Dimethylphenyl)azetidine-1-carbonyl]-4,4a,5,7,8,8a-hexahydropyrido [4,3-b][1,4]oxazin-3-one]: 30 nM.

The compound `CCC1CCCN1c1ccc(C2CN(C(=O)N3CC[C@@H]4OCC(=O)N[C@@H]4C3)C2)cc1` (stereo partly drawn) [Example 165, (4aR,8aS)-6-[3-[4-(2-Ethylpyrrolidin-1-yl)phenyl]azetidine-1-carbonyl]-4,4a,5,7,8,8a-hexahydropyrido[4,3-b][1,4]oxazin-3-one] came in with an IC50 of 0.4 nM. Compared with the last compound, the IC50 is about 75-fold lower. The same measure for `O=C1CO[C@H]2CCN(C(=O)N3CC(c4ccc(C(F)(F)F)c(F)c4)C3)C[C@H]2N1` [Example 254]: 82 nM. As for `O=C1CO[C@H]2CCN(C(=O)N3CC(c4ccc(N5CCC6(CC6)C5)cc4)C3)C[C@H]2N1` [Example 179, (4aR,8aS)-6-(3-(4-(5-Azaspiro[2.4]heptan-5-yl)phenyl)azetidine-1-carbonyl)hexahydro-2H-pyrido[4,3-b][1,4]oxazin-3(4H)-one], half-maximal inhibition (IC50) was put at 1 nM. Compound `CC(C)(C)c1ccc(C2CN(C(=O)N3CC[C@@H]4OCC(=O)N[C@@H]4C3)C2)cc1` [Example 140, (4aR,8aS)-6-(3-(4-(tert-Butyl)phenyl)azetidine-1-carbonyl)hexahydro-2H-pyrido[4,3-b][1,4]oxazin-3(4H)-one] returned an IC50 of 0.6 nM.

On to `O=C1CO[C@H]2CCN(C(=O)N3CC(c4ccc(Br)c(Cl)c4)C3)C[C@H]2N1` [Example 132, (4aR,8aS)-6-(3-(4-Bromo-3-chlorophenyl)azetidine-1-carbonyl)hexahydro-2H-pyrido[4,3-b][1,4]oxazin-3(4H)-one], for which it took 10 nM to reach half-maximal inhibition (IC50).

`O=C1CO[C@H]2CCN(C(=O)N3CC(c4ccc(-c5ccc(F)cc5F)cc4)C3)C[C@H]2N1` [Example 126, (4aR,8aS)-6-(3-(2′,4′-Difluoro-[1,1′-biphenyl]-4-yl)azetidine-1-carbonyl)hexahydro-2H-pyrido[4,3-b][1,4]oxazin-3(4H)-one] came in with an IC50 of 0.3 nM. As for `O=C1CO[C@H]2CCN(C(=O)N3CC(c4ccc(N5CC6CC6C5)cc4)C3)C[C@H]2N1` (stereo partly drawn) [Example 170, (4aR,8aS)-6-(3-(4-(3-Azabicyclo[3.1.0]hexan-3-yl)phenyl)azetidine-1-carbonyl)hexahydro-2H-pyrido[4,3-b][1,4]oxazin-3(4H)-one], the figure is 2 nM; as for `CC(C)(C)COc1ccc(C2CN(C(=O)N3CC[C@@H]4OCC(=O)N[C@@H]4C3)C2)cc1` [Example 278, (4aR,8aS)-6-(3-(4-(Neopentyloxy)phenyl)azetidine-1-carbonyl)hexahydro-2H-pyrido[4,3-b][1,4]oxazin-3(4H)-one], 0.1 nM.

The compound `O=C1CO[C@H]2CCN(C(=O)N3CC(c4ccc(N5CC(OCC6CC6)C5)cc4)C3)C[C@H]2N1` [Example 212, (4aR,8aS)-6-[3-[4-[3-(Cyclopropylmethoxy)azetidin-1-yl]phenyl]azetidine-1-carbonyl]-4,4a,5,7,8,8a-hexahydropyrido[4,3-b][1,4]oxazin-3-one] displayed an IC50 of 3 nM. In turn, `O=C1CO[C@H]2CCN(C(=O)N3CC(c4ccc(C56CC(C5)C6)cc4)C3)C[C@H]2N1` [Example 206, (4aR,8aS)-6-(3-(4-(Bicyclo[1.1.1]pentan-1-yl)phenyl)azetidine-1-carbonyl)hexahydro-2H-pyrido[4,3-b][1,4]oxazin-3(4H)-one] returned an IC50 of 5 nM. As for `O=C1CO[C@H]2CCN(C(=O)N3CCC(c4ccc(Br)cc4)CC3)C[C@H]2N1` [Example 157, (4aR,8aS)-6-(4-(4-Bromophenyl)piperidine-1-carbonyl)hexahydro-2H-pyrido[4,3-b][1,4]oxazin-3(4H)-one], the figure is 289 nM; as for `O=C1CO[C@H]2CCN(C(=O)N3CC(c4ccc(-c5ccc(Cl)cc5F)cc4)C3)C[C@H]2N1` [Example 133, (4aR,8aS)-6-[3-[4-(4-Chloro-2-fluoro-phenyl)phenyl]azetidine-1-carbonyl]-4,4a,5,7,8,8a-hexahydropyrido[4,3-b][1,4]oxazin-3-one], 0.2 nM.

On to `COc1cccc(C(c2ccc(F)cc2)C2CCN(C(=O)N3CC[C@@H]4OCC(=O)N[C@@H]4C3)CC2)c1` (single isomer, unassigned) [Example 63, (4aR,8aS)-6-(4-((R or S)-(4-Fluorophenyl)(3-methoxyphenyl)methyl)piperidine-1-carbonyl)hexahydro-2H-pyrido[4,3-b][1,4]oxazin-3(4H)-one], for which half-maximal inhibition (IC50) was put at 0.3 nM. The same measure for `CC(Oc1ccc(C(F)(F)F)cc1Cl)C1CN(C(=O)N2CC[C@@H]3OCC(=O)N[C@@H]3C2)C1` (single isomer, unassigned) [Example 75, (4aR,8aS)-6-(3-(R or S)-(1-(2-chloro-4-(trifluoromethyl)phenoxy)ethyl)azetidine-1-carbonyl)hexahydro-2H-pyrido[4,3-b][1,4]oxazin-3(4H)-one]: 28 nM; for `O=C1CO[C@H]2CCN(C(=O)N3CCC(C(COCC(F)(F)F)c4ccc(F)cc4)CC3)C[C@H]2N1` (stereo partly drawn) [Example 56, (4aR,8aS)-6-(4-(1-(4-Fluorophenyl)-2-(2,2,2-trifluoroethoxy)ethyl)piperidine-1-carbonyl)hexahydro-2H-pyrido[4,3-b][1,4]oxazin-3(4H)-one]: 21 nM; for `O=C1CO[C@H]2CCN(C(=O)N3CC(c4ccc(-c5ccc(Cl)cc5Cl)nc4)C3)C[C@H]2N1` [Example 154, (4aR,8aS)-6-(3-(6-(2,4-Dichlorophenyl)pyridin-3-yl)azetidine-1-carbonyl)hexahydro-2H-pyrido[4,3-b][1,4]oxazin-3(4H)-one]: 1 nM. The compound `CC(c1ccc(C(F)(F)F)cc1)C1CCN(C(=O)N2CC[C@@H]3OCC(=O)N[C@@H]3C2)CC1` (single isomer, unassigned) [Example 46, (4aR,8aS)-6-(4-((R or S)-1-(4-(Trifluoromethyl)phenyl)ethyl)piperidine-1-carbonyl)hexahydro-2H-pyrido[4,3-b][1,4]oxazin-3(4H)-one] returned an IC50 of 3 nM.

With `O=C1CO[C@H]2CCN(C(=O)N3CCC(C(c4ccccc4)c4cccc(OCCF)c4)CC3)C[C@H]2N1` (single isomer, unassigned) [Example 66, (4aR,8aS)-6-(4-((S or R)-(3-(2-Fluoroethoxy)phenyl)(phenyl)methyl)piperidine-1-carbonyl)hexahydro-2H-pyrido[4,3-b][1,4]oxazin-3(4H)-one], the IC50 amounted to 0.4 nM. Compared with the last compound, the IC50 is about 7.5-fold lower. The same measure for `O=C1CO[C@H]2CCN(C(=O)N3CC(c4ccc(-c5ccccc5)cc4)C3)C[C@H]2N1` [Example 141, (4aR,8aS)-6-[3-(4-Phenylphenyl)azetidine-1-carbonyl]-4,4a,5,7,8,8a-hexahydropyrido[4,3-b][1,4]oxazin-3-one]: 2 nM; for `COc1ccc(C(c2ccccn2)C2CCN(C(=O)N3CC[C@@H]4OCC(=O)N[C@@H]4C3)CC2)cc1OC` (single isomer, unassigned) [Example 119, (4aR,8aS)-6-[4-[(S or R)-(3,4-dimethoxyphenyl)-(2-pyridyl)methyl]piperidine-1-carbonyl]-4,4a,5,7,8,8a-hexahydropyrido[4,3-b][1,4]oxazin-3-one]: 17 nM; for `O=C1CO[C@H]2CCN(C(=O)N3CCN(C(c4ccccc4)C(F)(F)F)CC3)C[C@H]2N1` (stereo partly drawn) [Example 49, (4aR,8aS)-6-(4-(2,2,2-Trifluoro-1-phenylethyl)piperazine-1-carbonyl)hexahydro-2H-pyrido[4,3-b][1,4]oxazin-3(4H)-one]: 1100 nM. `CC(C)(C)OC(=O)NCCOCCC(=O)NCCOc1cccc(C(c2ccccc2)C2CCN(C(=O)N3CC[C@@H]4OCC(=O)N[C@@H]4C3)CC2)c1` (stereo partly drawn) [Example 255, tert-Butyl N-[2-[3-[2-[3-[[1-[(4aR,8aS)-3-oxo-4,4a,5,7,8,8a-hexahydropyrido[4,3-b][1,4]oxazine-6-carbonyl]-4-piperidyl]-phenyl-methyl]phenoxy]ethylamino]-3-oxo-propoxy]ethyl]carbamate] showed an IC50 of 2 nM. Against the preceding compound, the IC50 is about 550-fold lower.
